Laboratory results as given in patent publication US20210238162A1, “CHEMICAL COMPOUNDS” (GlaxoSmithKline Intellectual Property Development Limited, priority 2015, published 2021).
Counter-ions that a name gives are not always drawn. Like-named read-outs stand apart in the source and are kept apart here.

Molecular target: T1, haematopoietic prostaglandin D synthase (H-PGDS) (Homo sapiens, UniProt O60760)
T1 construct: Full length human H-PGDS cDNA (Invitrogen Ultimate ORF IOH13026) was amplified by PCR; made in house; host or cells: E. coli BL21 (DE3*), vector pET22b+
T1 sequence (O60760 whole entry): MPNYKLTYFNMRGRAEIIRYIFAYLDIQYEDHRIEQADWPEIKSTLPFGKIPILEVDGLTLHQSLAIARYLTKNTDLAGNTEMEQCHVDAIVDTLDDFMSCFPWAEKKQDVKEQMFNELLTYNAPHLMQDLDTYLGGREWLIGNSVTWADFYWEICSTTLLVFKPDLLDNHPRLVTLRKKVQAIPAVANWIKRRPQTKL
Experiment: H-PGDS RapidFire High Throughput Mass Spectrometry Assay
Format: biochemical
Protocol: The H-PGDS RapidFire™ mass spectrometric assay monitors conversion of prostaglandin H2 (PGH2) to prostaglandin D2 (PGD2) by haematopoietic prostaglandin D synthase (H-PGDS). In the assay format described here, the substrate (PGH2) is formed in situ by the action of cyclooxygenase-2 on arachidonic acid. This first step is set up to be fast, and generates a burst of PGH2 at ˜10 μM. The PGH2 is then further converted to PGD2 by the H-PGDS enzyme. […] Plates are then read on the RapidFire™ high throughput solid phase extraction system (Agilent) which incorporates a solid phase extraction step coupled to a triple quadrupole mass spectrometer (AB SCIEX). Relative levels of PGD2 and PGF2α, which acts as a surrogate for substrate, are measured and a percent conversion calculated.
Full length human H-PGDS cDNA (Invitrogen Ultimate ORF IOH13026) was amplified by PCR with the addition of a 5′ 6-His tag and TEV protease cleavage site. The PCR product was digested with Ndel and Xhol and ligated into pET22b+ (Merck Novagen®). Expression was carried out in E. coli strain BL21 (DE3*) using auto-induction Overnight Express™ Instant TB medium (Merck Novagen®) supplemented with 1% glycerol. The culture was first grown at 37° C. and the temperature was reduced to 25° C. when OD600 reached 2.0. Cells were harvested by centrifugation after a further 18 hr. 10 g of E. coli cell pellet was suspended to a total volume of 80 mL in lysis buffer (20 mM Tris-Cl pH 7.5, 300 mM NaCl, 20 mM imidazole, 5 mM β-mercaptoethanol, 10% glycerol). 1 mg/mL protease inhibitors (Protease Inhibitor Cocktail Set Ill, Merck Calbiochem®) and 1 mg/mL lysozyme were added to the cell suspension. The suspension was then sonicated for 5 min (UltraSonic Processor VCX 750, Cole-Parmer Instrument Co.) with a micro probe (50% amplitude, 10 sec on/off) and then centrifuged at 100,000 g for 90 min (at 4° C.). The supernatant was loaded onto a Ni-NTA HiTrap column (5 mL, GE Heathcare, pre-equilibrated in lysis buffer). The column was washed with 10 column volumes of lysis buffer and eluted with lysis buffer containing 500 mM imidazole. The pooled protein peak fractions were concentrated using a 10 kDa centrifugal filter at 3500 g and 4° C. (Amicon Ultra-15 centrifugal filter unit with Ultracel-10 membrane from Millipore). Further purification of the concentrated protein was carried out using gel filtration chromatography on a HiLoad 26/600 Superdex 75 preparative grade column (GE Healthcare Life Sciences) using 50 mM Tris pH 7.5, 50 mM NaCl, 1 mM dithiothreitol, 1 mM MgCl2. Fractions containing the protein were pooled, concentrated as described above, and stored at −80° C.
The full length human COX-2 gene (accession number L15326) was amplified by PCR to generate an EcoRI-HindIII fragment containing an in-frame FLAG tag. This was subcloned into pFastBac 1 (Invitrogen). The COX2 FLAG plasmid was recombined into the baculovirus genome according to the BAC-to-BAC protocol described by Invitrogen. Transfection into Spodoptera frugiperda (Sf9) insect cells was performed using Cellfectin (Invitrogen), according to the manufacturer's protocol. […] Recombinant virus was added at a Multiplicity of Infection (MOI) of 5 and the culture was allowed to continue for 3 days. Cells were harvested using a continuous feed centrifuge run at 2500 g at a rate of approximately 2 L/min with cooling. The resultant cell slurry was re-centrifuged in pots (2500 g, 20 min, 4° C.) and the cell paste was stored at −80° C. […] The suspension was sonicated in 500 mL batches for 8×5 seconds at 10 u amplitude with the medium tip of an MSE probe sonicator and subsequently incubated at 4° C. for 90 min with gentle stirring. The lysate was centrifuged at 12000 rpm for 45 min at 4° C. in a Sorvall SLA1500 rotor. The supernatant (1400 mL) was added to 420 mL of 20 mM Tris-Cl pH 7.4, 150 mM NaCl, 0.1 mM EDTA to reduce the concentration of n-octyl-β-D-glucopyranoside to 1% w/v.

[1] = H-PGDS RapidFire MS assay, mean pIC50, read-out: Potency Range (mean pIC50) (converted)
[2] = in at least one experimental run, read-out: H-PGDS pIC50 value (converted)

| Structure (SMILES) | IC50 [1] | IC50 [2] |
| --- | --- | --- |
| O=C(N[C@H]1CCNC1=O)c1cnc2cc(N3CCC3)c(Cl)cc2c1 [Example 166, (S)-7-(Azetidin-1-yl)-6-chloro-N-(2-oxopyrrolidin-3-yl)quinoline-3-carboxamide trifluoroacetic Acid Salt] | < 10 nM |  |
| Cn1nc(C2CC2)cc1NC(=O)c1cnc2cc(OC(F)F)c(Cl)cc2c1 [Example 128, 6-Chloro-N-(3-cyclopropyl-1-methyl-1H-pyrazol-5-yl)-7-(difluoromethoxy)quinoline-3-carboxamide] | 10 to 79.4 nM |  |
| CC1(O)CC(NC(=O)c2cnc3cc(N4CCC4)c(Cl)cc3c2)C1 (stereo not drawn) [Example 167, 7-(Azetidin-1-yl)-6-chloro-N-(3-hydroxy-3-methylcyclobutyl)quinoline-3-carboxamide trifluoroacetic Acid Salt] | < 10 nM |  |
| O=C1CC(NC(=O)c2cnc3cc(OC(F)F)c(F)cc3c2)c2ccccc2N1 (stereo not drawn) [Example 54, 7-(Difluoromethoxy)-6-fluoro-N-(2-oxo-1,2,3,4-tetrahydroquinolin-4-yl)quinoline-3-carboxamide] | 10 to 79.4 nM |  |
| CC(C)(O)[C@H]1CC[C@H](NC(=O)c2cnc3cc(OC(F)F)c(Cl)cc3c2)CC1 [Example 116, (6-Chloro-7-(difluoromethoxy)-N-(trans-4-(2-hydroxypropan-2-yl)cyclohexyl)quinoline-3-carboxamide, trifluoroacetate] | < 10 nM | 2.51 nM |
| C[C@]1(O)CC[C@H](NC(=O)c2cnc3cc(OC(F)F)c(Cl)cc3c2)C1 (racemic) [Example 146, Racemic 6-Chloro-7-(difluoromethoxy)-N-((1S,3S)-3-hydroxy-3-methylcyclopentyl)quinoline-3-carboxamide] | 10 to 79.4 nM |  |
| O=C(N[C@H]1CCNC1=O)c1cnc2cc(C3CC3)ccc2c1 [Example 45, (S)-7-Cyclopropyl-N-(2-oxopyrrolidin-3-yl)quinoline-3-carboxamide hydrochloride] | 10 to 79.4 nM |  |
| C[C@]1(O)CC[C@@H](NC(=O)c2cnc3cc(OC(F)F)c(Cl)cc3c2)CC1 [Example 147, 6-Chloro-7-(difluoromethoxy)-N-((1s,4s)-4-hydroxy-4-methylcyclohexyl)quinoline-3-carboxamide] | 10 to 79.4 nM |  |
| O=C(N[C@H]1CCNC1=O)c1cnc2cc(N3CC(F)C3)c(Cl)cc2c1 [Example 169, (S)-6-Chloro-7-(3-fluoroazetidin-1-yl)-N-(2-oxopyrrolidin-3-yl)quinoline-3-carboxamide] | < 10 nM |  |
| CC1C[C@H](NC(=O)c2cnc3cc(OC(F)F)c(Cl)cc3c2)C(=O)N1 (mixture of isomers) [Example 133, 6-Chloro-7-(difluoromethoxy)-N-((3S)-5-methyl-2-oxopyrrolidin-3-yl)quinoline-3-carboxamide] | 10 to 79.4 nM |  |
| CC(C)(O)[C@H]1CC[C@H](NC(=O)c2cnc3cc(OC(F)(F)F)c(Cl)cc3c2)CC1 [Example 215B, 6-Chloro-N-((trans)-4-(2-hydroxypropan-2-yl)cyclohexyl)-7-(trifluoromethoxy)quinoline-3-carboxamide] | < 10 nM |  |
| CC1(O)CCC(NC(=O)c2cnc3cc(OC(F)F)c(Cl)cc3c2)C1 (stereo not drawn) [Example 145, 6-Chloro-7-(difluoromethoxy)-N-(3-hydroxy-3-methylcyclopentyl)quinoline-3-carboxamide] | 10 to 79.4 nM |  |
| COc1cc2ncc(C(=O)NC3CCN(c4nnnn4C)CC3)cc2cc1F [Example 46, 6-Fluoro-7-methoxy-N-(1-(1-methyl-1H-tetrazol-5-yl)piperidin-4-yl)quinoline-3-carboxamide] | 100 to 1000 nM | 126 nM |
| CS(=O)(=O)N[C@H]1CC[C@H](NC(=O)c2cnc3cc(OC(F)F)c(F)cc3c2)CC1 [Example 56, 7-(Difluoromethoxy)-6-fluoro-N-(trans-4-(methylsulfonamido)cyclohexyl)quinoline-3-carboxamide] | 10 to 79.4 nM |  |
| O=C(N[C@H]1CCN(CC2CCCC2)C1=O)c1cnc2cc(OC(F)F)c(F)cc2c1 [Example 78, (S)—N-(1-(Cyclopentylmethyl)-2-oxopyrrolidin-3-yl)-7-(difluoromethoxy)-6-fluoroquinoline-3-carboxamide] | 10 to 79.4 nM |  |
| Cn1nnnc1N1CCC(NC(=O)c2cnc3cc(Br)c(Cl)cc3c2)CC1 [Example 27, 7-Bromo-6-chloro-N-(1-(1-methyl-1H-tetrazol-5-yl)piperidin-4-yl)quinoline-3-carboxamide] | 10 to 79.4 nM |  |
| CC(C)(O)[C@H]1CC[C@H](NC(=O)c2cnc3c4c(ccc3c2)CCO4)CC1 [Example 113, N-(trans-4-(2-Hydroxypropan-2-yl)cyclohexyl)-2,3-dihydrofuro[3,2-h]quinoline-7-carboxamide] | 10 to 79.4 nM |  |
| CCOC(=O)c1cnc(N2CC[C@H](NC(=O)c3cnc4cc(OC(F)F)c(F)cc4c3)C2)o1 [Example 80, (S)-Ethyl 2-(3-(7-(difluoromethoxy)-6-fluoroquinoline-3-carboxamido)pyrrolidin-1-yl)oxazole-5-carboxylate trifluoroacetic acid salt] | 10 to 79.4 nM |  |
| CN(C)c1cc2ncc(C(=O)N[C@H]3CC[C@H](C(C)(C)O)CC3)cc2cc1F [Example 160, 7-(Dimethylamino)-6-fluoro-N-(trans-4-(2-hydroxypropan-2-yl)cyclohexyl)quinoline-3-carboxamide] | < 10 nM | 3.98 nM |
| C[C@]1(O)C[C@@H](NC(=O)c2cnc3cc(OC(F)F)c(Cl)cc3c2)C1 [Example 138, 6-Chloro-7-(difluoromethoxy)-N-((1s,3s)-3-hydroxy-3-methylcyclobutyl)quinoline-3-carboxamide] | 10 to 79.4 nM | 20 nM |
| C[C@H](N[C@H]1CC[C@H](NC(=O)c2cnc3cc(OC(F)F)c(Br)cc3c2)CC1)C(F)F [Example 159, 6-Bromo-7-(difluoromethoxy)-N-(trans-4-(((S)-1,1-difluoropropan-2-yl)amino)cyclohexyl)quinoline-3-carboxamide] | < 10 nM |  |
| C[C@@H](N[C@H]1CC[C@H](NC(=O)c2cnc3cc(OC(F)F)c(F)cc3c2)CC1)C(F)F [Example 69, 7-(Difluoromethoxy)-N-(trans-4-(((R)-1,1-difluoropropan-2-yl)amino)cyclohexyl)-6-fluoroquinoline-3-carboxamide] | 10 to 79.4 nM |  |
| O=C(N[C@H]1CC[C@H](N[C@@H](CO)C(F)(F)F)CC1)c1cnc2cc(OC(F)F)c(F)cc2c1 [Example 85, 7-(Difluoromethoxy)-6-fluoro-N-(trans-4-(((S)-1,1,1-trifluoro-3-hydroxypropan-2-yl)amino)cyclohexyl)quinoline-3-carboxamide] | 10 to 79.4 nM |  |
| O=C(N[C@H]1C[C@H](NCC(F)(F)F)C1)c1cnc2cc(OC(F)F)c(F)cc2c1 [Example 59, 7-(Difluoromethoxy)-6-fluoro-N-(trans-3-((2,2,2-trifluoroethyl)amino)cyclobutyl)quinoline-3-carboxamide] | 10 to 79.4 nM | 50.1 nM |
| CC(C)Nc1cc2ncc(C(=O)N[C@H]3CC[C@H](C(C)(C)O)CC3)cc2cc1Cl [Example 212, 6-Chloro-N-((trans)-4-(2-hydroxypropan-2-yl)cyclohexyl)-7-(isopropylamino)quinoline-3-carboxamide] | < 10 nM |  |
